Assay results taken from BigSolDB 2.1.

O=C(O)/C=C\C=C/C(=O)O
solubility (mole fraction)
Conditions | in acetic acid | in ethanol | in isopropanol | in water
298.15 K | 0.0029 | 0.0117 | 0.0101 | 0.0002
303.15 K | 0.0034 | 0.0139 | 0.0107 | 0.0004
308.15 K | 0.0039 | 0.016 | 0.0124 | 0.0006
313.15 K | 0.0044 | 0.0184 | 0.0139 | 0.0008
318.15 K | 0.0052 | 0.0236 | 0.0156 | 0.0014
323.15 K | 0.0057 | 0.0293 | 0.017 | 0.0021
328.15 K | 0.0065 | 0.037 | 0.0204 | 0.0031
333.15 K | 0.0076 | 0.0478 | 0.0244 | 0.005
338.15 K | 0.0086 | 0.0595 | 0.0274 | 0.0068
343.15 K | 0.01 | 0.0715 | 0.0297 | 0.0106
348.15 K | 0.0125 | 0.0847 | 0.0342 | 0.0153
